{"source": "patent US20250302913A1", "about": "“LACRIPEP PROMOTES NEUROREGENERATION AND MAINTAINS EPITHELIAL PROGENITOR CELL IDENTITY” (The Regents of The University of California, priority 2022, published 2025)", "key": {"[1]": {"test_system": "Aire KO mice", "experiment": "Basal tear secretion (phenol red thread) in Aire KO dry eye mice", "assay_type": "in vivo, mouse", "settings": "day 15, 4 μM topical 3x per day for 14 days", "method": "To determine the impact of lacripep on physiological (basal) tear secretion, lacripep (4 μM) or phosphate buffered saline (PBS, control) was topically applied to Aire KO corneas 3 times (3×) per day for 14 consecutive days (from 5 to 7 wk of age) and tear production was measured at day 0, 7 and 15 (FIG. 1A).\nAll procedures were approved by the UCSF Institutional Animal Care and Use Committee (IACUC) and adhered to the NIH Guide for the Care and Use of Laboratory Animals (Approval number: 332AN089075-02). Wild type (WT) and Aire-deficient mice on the BALB/c background (BALB/c Aire KO) were the gift of Mark Anderson, University of California, San Francisco. Adult female mice (aged between 5 and 7 weeks) were used in all experiments. […] Appropriate sample size was calculated using power calculations. […]\nMice were anesthetized with isoflurane and basal tear secretion was then measured using a Zone-Quick phenol red thread (as indicated by the length of the tear-absorbed region in 15 seconds). Stimulated tear secretion was measured after 4.5 mg/kg of pilocarpine diluted in saline was injected into the peritoneum (i.p.). Ten minutes later, mice were anesthetized with isoflurane and tear secretion was measured using a Zone-Quick phenol red thread (Showa Yakuhin Kako Co. Ltd., Tokyo, Japan)."}, "[2]": {"test_system": "Aire KO corneas", "experiment": "RNAseq of corneas at day 7 of treatment", "assay_type": "in vivo, mouse", "from_the_text": "To identify potential downstream targets of lacripep treatment, we elucidated changes in corneal gene expression and signaling pathways at the day 7 time point through RNAseq. Principal component analysis (PCA) identified major transcriptional differences between each treatment group (FIG. 6A). […] Subsequent analysis yielded enriched gene sets that were highly associated with neuronal gene ontology (GO) terms e.g., synapse (P=3.6E-47), visual perception (P=5.8E-49), neuron projection (P=2.1E-29), and response to stimulus (P=1.8E-19) (FIG. 4C). These included cohorts of genes expressed by nerves and/or corneal epithelial cells involved in axonogenesis and axon guidance e.g., Neurod2, Cntn4, ephrins (Epha5, Epha7, Epha8) and semaphorins (Sema6a, Sema7a); synapse formation and function e.g., synaptic vesicle membrane proteins (Syt1; synaptophysin-Syp) and synaptic vesicle exocytosis regulators (Rims1, Rims2); neuronal signaling e.g., GABA receptors (Gabra2, Gabrr1), glutamate receptors (Gria2, Gria4), and G protein signal-transducing mediators (Gnb3, Gng4); and neurotransmitter transport e.g. glutamate transporters (Slc17a7) and GABA transporters (Slc6a1, Slc32a1) (FIG. 4D). Analysis of corneas treated with lacripep or PBS versus untreated corneas further emphasized the ability of lacripep and not PBS alone to induce transcription of neuronal gene sets (FIG. 6B).\nTotal RNA was collected at 7 days of treatment and purified using RNAaqueous and DNase reagents according to the manufacturer's instructions (Ambion, Houston, TX, USA). RNA quality was assessed using the Agilent 2100 BioAnalyzer, and samples with an RNA integrity ≥6.0 were included for RNA sequencing. The synthesis of mRNA libraries was performed by Novogene Corporation Inc. according to their protocols. RNA library was formed by ploy A capture (or rRNA removal), RNA fragmentation by covaris or enzyme digestion and reverse transcription of cDNA. Sequencing was performed as described below.\nRNA libraries were sequenced on an Illumina NovaSeq 6000. Depths of 20-30 million 150 bp paired-end reads were generated for each sample. Quality control metrics were performed on raw sequencing reads using the FASTQC v0.11.9 application (76). Reads were mapped to the UCSC Mus musculus genome mm 10 (NCBI build v38) using Spliced Transcripts Alignment to a Reference (STAR) (77). At least 90% of the reads were successfully mapped. Reads aligning to the mm 10 build were quantified against Ensembl Transcripts release 93 using Partek® E/M (Partek's optimization of the expectation maximization algorithm, Partek Inc, St. Louis, MO, USA), which disregarded any reads that aligned to more than one location or more than one gene at a single location. […]"}, "[3]": {"test_system": "Rest, Isl1, Rreb1 regulons", "experiment": "iRegulon transcription factor-gene target regulatory network analysis", "parameters": "species or system mouse", "settings": "day 7; lacripep vs PBS; NES>3", "from_the_text": "To identify candidate transcription factors that regulate these gene sets, we performed transcription factor (TF)-gene target regulatory network analysis using iRegulon (37). iRegulon identifies transcription factor-binding motifs that are enriched in the genomic regions of a query gene set and predicts transcription factors that bind to them. […] ISL1 plays an essential role in the generation of sensory and sympathetic neurons (38 39), REST is a master regulator of neurogenesis that plays a role in modulating synaptic plasticity (40-42) and RREB1 regulates axon injury (43). […] The Isl1 exclusive gene set was also extensively enriched in genes involved with functional and structural nerve-mediated processes including visual perception (P=3.5E-27, e.g., Capb4, Vsx1), response to stimulus (P=9.7E-19; e.g., Slc17a7, Ush2a), synapse (P=9.4E-8, e.g. Magi2, Synpr) and neuron projection (P=6.4E-6, e.g., Cdh23, Kif1a) (FIG. 4F).\nTo identify regulatory networks underlying the impact of lacripep on tissue regeneration, we used the cytoscape application iRegulon (37) to predict master regulators, i.e., transcription factors whose regulons (transcriptional target sets) are highly enriched with the input gene list."}, "[4]": {"settings": "lacripep- versus PBS-treated corneas, Padj<0.05, 2-fold change cutoff"}}}
{"substance": "Ac-KQFIENGSEFAQKLLKKFSLLKPWA-NH2 [lacripep, amino terminus acetylated, carboxyl terminus aminated]", "values": [{"measurement": "basal tear volumes relative to WT", "setting": "[1]", "value": "83 % of WT"}, {"measurement": "expression of inflammatory mediators (IL1b, interferon response genes)", "setting": "[2]; across diseased corneas", "value": "expressed at similar levels in all diseased corneas"}, {"measurement": "expression of T cell markers, T cell response genes and macrophage markers", "setting": "[2]; compared to WT controls", "value": "remained significantly elevated"}, {"measurement": "genes downregulated", "setting": "[2]; [4]", "value": 15, "unit": "genes"}, {"measurement": "genes significantly upregulated", "setting": "[2]; [4]", "value": 818, "unit": "genes"}, {"measurement": "upregulated target genes of Isl1 regulon", "setting": "[3]", "value": 394, "unit": "genes"}, {"measurement": "upregulated target genes of Rest regulon", "setting": "[3]", "value": 184, "unit": "genes"}, {"measurement": "upregulated target genes of Rreb1 regulon", "setting": "[3]", "value": 254, "unit": "genes"}]}
